The RepoRT retention time repository

Assay: Agilent ZORBAX 300 SB-C18, 150 × 1 mm, 3.5 µm; A: water + 0.01% heptafluorobutyric acid; B: acetonitrile + 0.01% heptafluorobutyric acid; gradient (min/%B) 0/0 100/90
Settings: stereoisomer not certain

Structure (SMILES)	LC retention time [min]
Cc1ccc(N)cc1C(=O)O	7.34
Nc1cc(N)[nH]c(=S)n1	6.42
Cc1[nH]c(=S)[nH]c1CC(C)C	9.02
S=C1N=C2CCCC2C2(CCCC2)N1 (stereo not given)	8.95
O=C(O)CCNc1cc(C(=O)O)ccc1C(=O)O	7.69
CC(C)c1ccc(OCC(=O)N2CCC(C(N)=O)CC2)cc1	10.8
CC(=O)N1c2ccc(N)cc2CC1C (stereo not given)	7.53
NCCc1ccccn1	6.83
CC1Cc2ccccc2N1C(=O)CN1CCN(C)CC1 (stereo not given)	8.74
CCCCn1c2ccccc2n2cc(C(C)(C)C)nc12	12.2
O=C(Cc1cccc2ccccc12)N1CCN(Cc2ccccc2)CC1	10.4
c1ccc2nccnc2c1	8.94
CN1CC(=O)N(c2cccc(N)c2)C1=O	6.98
CC(C)CC1(C)NC(=S)N(c2ccccc2)N1 (stereo not given)	14.1
Cc1cccc(N)c1N	7.32
Cc1cc(C)c2cccc(C)c2n1	8.65
CC1(C)CC(NCC(=O)OC2CCCCC2)CC(C)(C)N1	8.55
CC(C)c1ccc(C(=O)CCN(C)C)cc1	9.8
CN(C)c1ccc(N=C2C=CC(=Nc3ccc(N(C)C)cc3)C=C2)cc1	9.47
CCN(CC)c1cc(C)c2ccccc2n1	9.54
Nc1ncc2[nH]cnc2n1	5.52
Nc1ccc2c(c1)COc1ccccc1O2	10.5
CN(C)CCN	6.51
Cc1ccc2c(c1N)C(=O)c1ccccc1C2=O	14.9
CCN(CC)CCCN	6.92
O=C(CCC1CCCC1)N1CCN(C(=O)COc2ccccc2)CC1	13.7

Structure (SMILES)	LC retention time [min]
CCOC(=O)C(N)CCCN=C(N)N (stereo not given)	7.25
NCC1(O)CCCCC1	7.06
Cn1cnc2ccccc21	7.26
Nc1ccc[nH]c1=O	2.98
CCNCC	5.17
NC(CO)(CO)CO	2.86
O=S(=O)(O)CCN1CCOCC1	1.67
O=C1CCCc2c1[nH]c1ccccc21	12.3
CC1(C)CC(=O)c2cc3c(nc2C1)CC(C)(C)CC3=O	13.2
Cc1cc(C)c(N)c(C(=O)O)c1	10.4
CCCCCCN(C)CCCCCC	11.9
c1cncc(N2CCN(c3cccnc3)CC2)c1	7.33
NC(N)=NC(CC(=O)O)C(=O)O (stereo not given)	2.11
CCSc1cccc2cccnc12	11.7
COC(=O)Cc1ccc(N)cc1N	7.24
O=c1nc(NN=Cc2cccnc2)cn[nH]1	6.94
Cc1nc2ccc(NC(=S)N(C)C)cc2nc1C	8.82
Cc1cc(C)nc(SCc2nc3ccccc3nc2C)n1	13.2
NC(=O)C1CCN(C(=O)c2ccco2)CC1	6.85
CN(C)C(=O)c1ccc(N)cc1	6.87
CCCCCCC[n+]1ccc(-c2cc[n+](CCCCCCC)cc2)cc1	10.5
C=CCNC1(c2ccccc2)CCCCC1	9.71
O=C1C=CC(=O)N1C1CCCCC1	9.58
Cc1cccc(N)c1	8.01
CC(=O)CNC(C)(C)C(C)=O	5.92
CCN(CC)CC(=O)Nc1c(C)ccc(O)c1C	8.16

Further lines, results first:

LC retention time [min]	Structure (SMILES)
8.92	Cc1c(N=Cc2ccncc2)c(=O)n(-c2ccccc2)n1C
11.4	O=c1[nH]c(N=NCc2ccccc2O)nnc1Cc1ccccc1
14.6	c1ccc2c(c1)[nH]c1ccccc12
13.7	NC(=S)NN=Cc1c2ccccc2cc2ccccc12
8.5	Cc1nncn1-c1ccccc1
9.02	CC(N)C(=O)Nc1ccc2ccccc2c1 (stereo not given)
10.6	Cn1c2c(c(=O)[nH]c1=O)C(c1ccccc1)C1=C(N2)c2ccccc2C1=O (stereo not given)
11.2	Nc1ccc2nc(-c3ccccc3)oc(=O)c2c1
13	CCN(CC)CCOC(=O)C(c1ccccc1)C1CCCCC1 (stereo not given)
11.4	O=C(c1n[nH]c(=O)c2ccccc12)N1CCN(C(c2ccccc2)c2ccccc2)CC1
8.34	Nc1cccc2cc3ccccc3nc12
12.9	CCCCNC(=O)c1c[nH]c2ccccc2c1=O
6.56	NC(=O)C(N)c1ccccc1 (stereo not given)
13	Cc1ccc(C(=O)c2cccc(N)c2)cc1C
14.3	COc1cccc(C(=O)N(c2ccccc2)C2CC(C)N(C(C)=O)c3ccccc32)c1 (stereo not given)
11.3	c1ccc(-c2ccc3ccccc3n2)nc1
15.7	CCn1c2ccccc2c2cc(C=NNC(=O)c3ccc(C)cc3)ccc21
12.6	CC1=NC(=O)NC(c2ccccc2)C1C(=O)OCc1ccccc1 (stereo not given)
8.98	CN(C)CCOC(C)(c1ccccc1)c1ccccn1 (stereo not given)

LC retention time [min]	Structure (SMILES)
13.2	CC(=O)c1ccc(-n2cccc2)cc1
7.52	CC1(C)SC2C(NC(=O)C(N)c3ccc(O)cc3)C(=O)N2C1C(=O)O (stereo not given)
8.05	Cc1cc(=O)n(-c2ccc(C(=O)O)cc2)[nH]1
14.3	COC(=O)Cn1c(=O)c(-c2ccccc2)nc2ccccc21
15	Cc1ccc(-c2nc(-c3ccc(-c4ccccc4)cc3)[nH]c2-c2ccccc2)cc1C
8.91	CCN(Cc1ccncc1)C(=S)Nc1ccccc1
11.1	NC(=O)c1cc2c(ccc3ccccc32)oc1=O
13.7	CCOC(=O)C1=C(C(=O)OC)CN(c2ccccc2)N1
9.93	Cc1[nH]c2ccccc2c1Cc1nc2ccccc2[nH]1
12.6	Cc1cc(C)c2c(O)c(Cc3ccccc3)c(=O)[nH]c2c1
11	O=C1NC(=O)C(c2ccccc2)(c2ccccc2)N1
11.1	O=c1cnc(-c2ccccc2)c(-c2ccccc2)[nH]1
8.65	O=CC1C(=O)Nc2ccccc21 (stereo not given)
16.1	Cc1ccc(C=CC(=O)c2ccccc2O)cc1
16.5	CCCCc1ccc(NC(=O)c2ccc(OC(C)=O)cc2)cc1
8.61	CCN1C(=O)C2C(C)NC3(C(=O)Nc4ccccc43)C2C1=O (stereo not given)
12.2	CN(C)C=CC(=O)c1ccc2ccccc2c1
15	CC(c1ccccc1)C1Nc2ccccc2C(=O)N1c1ccccc1 (stereo not given)
16.6	O=C(NCc1ccc(-n2cccc2)cc1)C(c1ccccc1)c1ccccc1
